Where two headings read alike, the source gives them in different places.
How the values were obtained:
Tankyrase 1 (TNKS1) = biological target: T1, Tankyrase 1 (TNKS1) (Homo sapiens, UniProt O95271); assay: μHTS-TNKS-IWR2 TR-FRET Binding Assay (Example 118), His6-TNKS1
T1 construct: His6-TNKS1, MW=28.2 KDa (construct: 1088-1327, 1266M)
Method: (§1) μHTS-TNKS-IWR2 TR-FRET Binding Assay (10 μL/well in BD1536-well plate, a single point)
(§2) Reagents and Stock Solutions
(§3) Biotin-4-((1S,2R,6S,7R)-3,5-Dioxo-4-aza-tricyclo[5.2.1.0*2,6]dec-8-en-4-yl)-N-(4-methyl-quinolin-8-yl)-benzamide (Biotin-IWR2): 10 mM Biotin-IWR2 stock in DMSO, stored at −20° C.
(XAV939) in DMSO, stored at −20° C.
(§4) Assay buffer 1a (AB1a) for TNKS dilution: 50 mM Tris, pH 7.4, 100 mM sodium chloride solution, 1 mM magnesium chloride solution, 1 mM DL-dithiothreitol solution, 0.2 mg/mL bovine serum albumin solution, 0.025% NP-40.
(§5) Assay buffer 1b (AB1b) for Biotin-IWR2 dilution: 50 mM Tris, pH 7.4, 100 mM sodium chloride solution, 1 mM magnesium chloride solution, 1 mM DL-dithiothreitol solution, 0.2 mg/mL bovine serum albumin solution, 0.05% NP-40
(§6) Assay buffer 1c (AB1c) for compound dilution: 50 mM Tris, pH 7.4, 100 mM sodium chloride solution, 1 mM magnesium chloride solution, 1 mM DL-dithiothreitol solution, 0.2 mg/mL bovine serum albumin solution
(§7) Assay buffer 2 (AB2) for Eu/APC: 50 mM Tris, pH 7.4, 100 mM sodium chloride solution, 1 mM magnesium chloride solution, 0.2 mg/mL bovine serum albumin solution
(§8) Reagent Stock Solution Preparation
(§9) Prepare BLANK well stock solution: 5% DMSO/AB1b buffer
(§10) Prepare TNKS 1 stock solution (5× stock): 300 nM TNKS in AB1a buffer. (Alternatively, use TNKS2 or PARP1 stock solutions.)
Transfer 3 μL/well of above solution (solution 1,2,3) to an empty assay plate (BD1536-well plate) as follows: • TOTAL and cpd wells: Solution 1 (Biotin-IWR2): • BLANK wells: Solution 2 (No Biotin-IWR2): • POSITIVE CONTROL wells: Solution 3 (Biotin-IWR2+XAV939)
(§11) Transfer 3 μL/well of the above diluted compound solutions or compound dilution buffer to the above assay plate. Add 2 μL/well of 300 nM TNKS stock solution (4) to every well in the above assay plate. Centrifuge the assay plate at 2100 rpm for 2 min. Incubate the assay plate at 26° C. for 30 minutes. Add 2 μL/well 3.5 nMEu/50 nM APC solution (5) to every well in the above assay plate. Centrifuge the assay plate at 2100 rpm for 2 min. Incubate the assay plate at 26° C. for 60 min.

tankyrase 2 (TNKS2) = biological target: T2, tankyrase 2 (TNKS2) (Homo sapiens, UniProt Q9H2K2); assay: μHTS-TNKS-IWR2 TR-FRET Binding Assay (Example 118), His6-TNKS2 substituted; conditions: procedure in Example 118 with His6-TNKS2
T2 construct: His6-tankyrase 2 (construct: 934-1166) (His6-TNKS2)
T2 sequence (Q9H2K2 934-1166): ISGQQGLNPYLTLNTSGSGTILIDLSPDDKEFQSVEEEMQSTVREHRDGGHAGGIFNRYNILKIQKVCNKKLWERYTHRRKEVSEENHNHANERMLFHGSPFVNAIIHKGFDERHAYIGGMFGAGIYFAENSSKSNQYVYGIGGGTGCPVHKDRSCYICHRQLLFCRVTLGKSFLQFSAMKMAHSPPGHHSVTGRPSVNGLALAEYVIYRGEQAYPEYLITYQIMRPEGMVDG
Method: as §1, §2
Tankyrase 1 (TNKS1): 184.3 μM=5.2 mg/mL His6-TNKS1, MW=28.2 KDa (construct: 1088-1327, 1266M) in 20 mM Tris pH 8, 150 mM NaCl, 10% glycerol, and 0.5 mM TCEP. Alternatively, His6-tankyrase 2 (construct: 934-1166) (His6-TNKS2) or His6-PARP1 (full length) can be substituted for His6-TNKS 1.
as §3
Positive control: 10 mM 2-(4-Trifluoromethyl-phenyl)-3,5,7,8-tetrahydro-thiopyrano[4,3-d]pyrimidin-4-one (XAV939) in DMSO, stored at −20° C.
APC-anti-His Ab: 8.50 μM SL-APC, 8.26 μM anti-6His antibody-SureLight APC (Columia Bioscience, Catalog Number D3-1711, Lot Number N01010-AAH04)
Assay plate: BD 1536-well, clear/black plate (Catalog Number 353255)
as §4, §5, §6, §7, §8
Prepare Biotinylated IWR2 stock solution (3.33× stock) for TOTL and compound wells: 200 nM Biotin-IWR2 in 5% DMSO/AB1b buffer
as §9
Prepare POSITIVE CONTROL well stock solution (3.33× stock): 200 nM XAV939 in 200 nM Biotin-IWR2/5% DMSO/AB1b buffer
as §10
Prepare Eu/APC stock solution (5× stock): 3.5 nM Eu-SA/50 nM APC-His6Ab in AB2 buffer.
Add 25 μL/well 1.5% DMSO/AB1c buffer in each compound well to the compound concentration at 74 μM in 8.8% DMSO/AB1c buffer or in the 2 μL DMSO CONTROL wells (BLANK, TOTAL and POSITIVE wells) in the compound plate. Transfer 3 μL/well of above solution (solution 1,2,3) to an empty assay plate (BD1536-well plate) as follows: • TOTAL and cpd wells: Solution 1 (Biotin-IWR2): • BLANK wells: Solution 2 (No Biotin-IWR2): • POSITIVE CONTROL wells: Solution 3 (Biotin-IWR2+XAV939)
as §11, with “60 min. Read the assay plate immediately at excitation wavelength of 330 nm and emission wavelength of […] in time resolved fluorescence mode.” for “60 min.”
XAV939 (+ve control): 60 nM at ˜70% Inhibition
General Library compounds: 22.23 μM in 4% DMSO

T1 sequence (O95271 1088-1327): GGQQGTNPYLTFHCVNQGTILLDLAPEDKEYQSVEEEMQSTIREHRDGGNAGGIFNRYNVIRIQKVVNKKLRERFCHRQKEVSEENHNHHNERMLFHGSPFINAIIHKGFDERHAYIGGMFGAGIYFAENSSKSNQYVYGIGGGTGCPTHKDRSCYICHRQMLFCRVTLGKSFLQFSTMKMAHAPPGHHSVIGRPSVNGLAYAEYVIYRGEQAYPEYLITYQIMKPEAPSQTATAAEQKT

Row | IC50 (Tankyrase 1 (TNKS1)) | IC50 (tankyrase 2 (TNKS2)) | Molecule | IC50 (Tankyrase 1 (TNKS1); Compounds I-1 to I-58, procedure in Example 118 (TR-FRET, Biotin-IWR2 60 nM, TNKS 60 nM), read-out: TNKS1 (IC50))
1 | 7.6 nM | 24.4 nM | COCCOc1cc(F)c(N2CCN(c3nc4c(cnn4C)c(=O)[nH]3)CC2)c(F)c1 [Compound I-1, 6-[4-[2 6-difluoro-4-(2-methoxyethoxy)phenyl]piperazin-1-yl]-1-methyl-5H-pyrazolo[3 4-d]pyrimidin-4-one] | 
2 | 147 nM | 376 nM | O=c1[nH]c(N2CCN(c3ccccc3F)CC2)nc2[nH]ncc12 [Compound I-10, 6-[4-(2-fluorophenyl)piperazin-1-yl]-1 5-dihydropyrazolo[3 4-d]pyrimidin-4-one] | 
3 | 57 nM | 66.8 nM | Cn1ncc2c(=O)[nH]c(N3CCC(O)(c4ccccc4)CC3)nc21 [Compound I-23, 6-(4-hydroxy-4-phenyl-1-piperidyl)-1-methyl-5H-pyrazolo[3 4-d]pyrimidin-4-one] | 
4 | 165 nM | 178 nM | Cn1ncc2c(=O)[nH]c(N3CCN(C4CCCC4)CC3)nc21 [Compound I-37, 6-(4-cyclopentylpiperazin-1-yl)-1-methyl-5H-pyrazolo[3 4-d]pyrimidin-4-one] | 
5 | 105 nM | 176 nM | O=c1[nH]c(N2CCN(c3ccccc3F)CC2)cc2[nH]ncc12 [Compound I-12, 6-[4-(2-fluorophenyl)piperazin-1-yl]-1 5-dihydropyrazolo[4 3-c]pyridin-4-one] | 
6 | 31 nM | 43.2 nM | Cn1ncc2c(=O)[nH]c(N3CCN(c4ncccc4C(F)(F)F)CC3)nc21 [Compound I-20, 1-methyl-6-[4-[3-(trifluoromethyl)-2-pyridyl]piperazin-1-yl]-5H-pyrazolo[3 4-d]pyrimidin-4-one] | 
7 | 26 nM | 24.6 nM | Cn1ncc2c(=O)[nH]c(N3CCN(c4ccc(-c5nnn[nH]5)cc4F)CC3)nc21 [Compound I-31, 6-[4-[2-fluoro-4-(1H-tetrazol-5-yl)phenyl]piperazin-1-yl]-1-methyl-5H-pyrazolo[3 4-d]pyrimidin-4-one] | 
8 | 286 nM | 325 nM | Cn1ncc2c(=O)[nH]c(-c3ccc(C(F)(F)F)cn3)nc21 [Compound I-50, 1-methyl-6-[5-(trifluoromethyl)-2-pyridyl]-5H-pyrazolo[3 4-d]pyrimidin-4-one] | 
9 | 47 nM | 54.5 nM | Cn1ncc2c(=O)[nH]c(N3CCC(C#N)(c4ccccn4)CC3)nc21 [Compound I-52, 1-(1-methyl-4-oxo-5H-pyrazolo[3 4-d]pyrimidin-6-yl)-4-(2-pyridyl)piperidine-4-carbonitrile] | 
10 | 32 nM | 32.5 nM | Cn1ncc2c(=O)[nH]c(-c3ccc(C(F)(F)F)cc3)cc21 [Compound I-13, 1-methyl-6-[4-(trifluoromethyl)phenyl]-5H-pyrazolo[4 3-c]pyridin-4-one] | 
11 | 28 nM | 33 nM | CCC(=O)c1cc(F)c(N2CCN(c3nc4c(cnn4C)c(=O)[nH]3)CC2)c(F)c1 [Compound I-45, 6-[4-(2 6-difluoro-4-propanoyl-phenyl)piperazin-1-yl]-1-methyl-5H-pyrazolo[3 4-d]pyrimidin-4-one] | 
12 | 34 nM | 95.3 nM | Cn1ncc2c(=O)[nH]c(N3CCN(c4ccc(C(C)(C)O)cc4F)CC3)nc21 [Compound I-44, 6-[4-[2-fluoro-4-(1-hydroxy-1-methyl-ethyl)phenyl]piperazin-1-yl]-1-methyl-5H-pyrazolo[3 4-d]pyrimidin-4-one] | 
13 | 108 nM | 159 nM | O=c1[nH]c(N2CCC(c3ccc(F)cc3)CC2)cc2[nH]ncc12 [Compound I-11, 6-[4-(4-fluorophenyl)-1-piperidyl]-1 5-dihydropyrazolo[4 3-c]pyridin-4-one] | 
14 | 385 nM | 428 nM | Cn1ncc2c(=O)[nH]c(-c3ccc(C(F)(F)F)nc3)nc21 [Compound I-27, 1-methyl-6-[6-(trifluoromethyl)-3-pyridyl)-5H-pyrazolo[3 4-d]pyrimidin-4-one] | 

Row | Molecule | IC50 (Tankyrase 1 (TNKS1)) | IC50 (tankyrase 2 (TNKS2)) | IC50 (Tankyrase 1 (TNKS1); Compounds I-1 to I-58, procedure in Example 118 (TR-FRET, Biotin-IWR2 60 nM, TNKS 60 nM), read-out: TNKS1 (IC50))
15 | 6-[4-(2- fluorophenyl)piperazin-1- yl]-1-methyl-5H- pyrazolo[4 3-c]pyridin-4- one [Compound I-7] |  | 41.2 nM | 46 nM
